{"source": "patent US7238668B1", "about": "“Inhibition of lymphocyte adherence with CS-1-peptides and fragments thereof” (Fred Hutchinson Cancer Research Center, priority 1989, dated 2007)", "molecules": {"B1": {"name": "38 kDa tryptic fragment of plasma fibronectin (ligand, human, UniProt P02751-8 1589-1968, looked up)", "chain": "TAGPDQTEMTIEGLQPTVEYVVSVYAQNPSGESQPLVQTAVTTIPAPTDLKFTQVTPTSLSAQWTPPNVQLTGYRVRVTPKEKTGPMKEINLAPDSSSVVVSGLMVATKYEVSVYALKDTLTSRPAQGVVTTLENVSPPRRARVTDATETTITISWRTKTETITGFQVDAVPANGQTPIQRTIKPDVRSYTITGLQPGTDYKIYLYTLNDNARSSPVVIDASTAIDAPSNLRFLATTPNSLLVSWQPPRARITGYIIKYEKPGSPPREVVPRPRPGVTEATITGLEPGTEYTIYVIALKNNQKSEPLIGRKKTDELPQLVTLPHPNLHGPEILDVPSTVQKTPFVTHPGYDTGNGIQLPGTSGQQPSVGQQMIFEEHGFR", "notes": "domain: Hep II and first 67 residues of IIICS (38 kDa tryptic fragment); also called CTCBD fragment"}}, "key": {"[1]": {"system": "T lymphocytes (Jurkat or Molt 4 cells)", "test": "T lymphocyte adhesion to plasma fibronectin, tryptic fragments and CS peptides", "assay_type": "cell-based, human", "protocol": "(§1) Antibodies that would alter cell adhesion to purified plasma fibronectin, tryptic fragments and CS peptides were identified as previously described (Wayner and Carter, 1987). […] The plates were blocked with PBS supplemented with 10 mg/ml heat denatured BSA (HBSA). T lymphocyte or HT1080 cells were labeled with Na2 ^51CrO4 (50 μlCi/ml for 2–4 hr), washed, and 5×10^4 HT1080 or cultured T cells or […] were incubated with hybridoma culture supernatants (1:2 dilution in PBS supplemented with 1 mg/ml heat denatured BSA) or control myeloma cell culture supernatant for 15 minutes at room temperature. The cells were allowed to adhere to the protein-coated surfaces in the presence of the hybridoma supernatants for 15–30 minutes (HT1080) or 2–4 hours (lymphocytes) at 37° C. Non-adherent cells were removed by washing with PBS, and the adherent cells were dissolved in SDS/NaOH and bound ^51Cr-cpm were quantitated in a gamma counter.\nHuman plasma fibronectin was a generous gift from Drs. Horowitz and R. Schulman (New York Blood Center, N.Y.). […] Two overlapping peptides spanning the initial 48 residues of the IIICS region of human fibronectin (CS-1 and CS-2) were synthesized and coupled to rabbit IgG as described (Humphries et al., 1986, and Humphries et al., 1987, J. Biol. Chem. 262:6886–6892)."}, "[2]": {"system": "Ramos (B) lymphocyte adhesion to HUVE monolayers", "test": "Endothelial cell adhesion assay, Ramos cells on HUVE monolayers", "assay_type": "cell-based, human", "settings": "Table XI", "protocol": "(§2) HUVEs were incubated with IL-1 β (1 ng/ml) or in some experiments with TNF α (10 ng/ml) for 6–24 hours. At the end of this incubation the HUVE monolayers were washed and used in the adhesion assay.\n(§3) Human umbilical vein endothelial cells (HUVEs) were cultured in 48 well plates as described (supra). To measure adherence of lymphocytes to HUVE monolayer cultures, lymphocytes were labeled with Na2 ^51CrO4 (50 μCi/ml) for 2–4 hours), washed, and then 10^5 lymphocytes were incubated with HUVE monolayers in the presence or absence of inhibitory antibodies or CS-1 derived peptides. The lymphocytes were allowed to adhere for 30 minutes at 37°. Non-adherent cells were subsequently removed by washing with PBS, and the adherent cells were dissolved in SDS/NaOH. Bound ^51Cr-cpm were quantitated in a gamma counter. In some experiments, endothelial cells were activated prior to the adhesion assay by incubating with IL-1 β (1 ng/ml) or […] (10 ng/ml) for 6–24 hours in defined CS-100 media (Cell Systems, Seattle, Wash.)."}, "Jurkat": {"system": "Jurkat", "test": "Inhibition of Jurkat cell adhesion to plasma fibronectin and its fragments", "assay_type": "cell-based, human", "protocol": "as §1"}, "fibroblasts": {"system": "fibroblasts", "test": "Inhibition of fibroblast adhesion to plasma fibronectin", "assay_type": "cell-based", "protocol": "as §1"}, "[3]": {"system": "Jurkat (T) lymphocyte adhesion to HUVE monolayers", "test": "Endothelial cell adhesion assay, Jurkat cells on HUVE monolayers", "assay_type": "cell-based, human", "settings": "Table XI", "protocol": "as §2, §3"}, "[4]": {"system": "LAD (B) lymphocyte adhesion to HUVE monolayers", "test": "Endothelial cell adhesion assay, LAD cells on HUVE monolayers", "assay_type": "cell-based, human", "settings": "Table XI", "protocol": "as §2, §3"}, "K562-1 cells": {"system": "K562-1 cells", "test": "Inhibition of K562 cell adhesion to plasma fibronectin and fragments", "assay_type": "cell-based, human"}, "A375 melanoma cells": {"system": "A375 melanoma cells", "test": "A375 melanoma cell adhesion to peptide-rsa coated surfaces", "assay_type": "cell-based, human", "settings": "FIG. 12, 5 ug/ml peptide, 30 min", "protocol": "(§4) Adhesion of various hematopoetic cell lines to CS-1 (open bars; FIG. 12) or LDV minimal peptide-coated surfaces (cross-hatched bars; FIG. 12) was tested as follows: Jurkat (T lymphoblastoid), A375 (melanoma), U937 (monocytic), Ramos (B lymphoblastoid), and ST-1 (EBV transformed B lymphoblastoid) cells were allowed to adhere to CS-1-rsa or LDVPST-rsa (5 ug/ml peptide) coated surfaces for 30 min at 37° C. At the end of this time the non-adherent cells were washed off and the adherent cells were solubilized in NaOH/SDS and quantitated in a gamma counter. The results are expressed as bound counts per minute."}, "Jurkat cells": {"system": "Jurkat cells", "test": "Jurkat cell adhesion to surfaces coated with peptide-rsa conjugates", "assay_type": "cell-based, human", "settings": "Jurkat; FIG. 12; 5 ug/ml peptide; 30 min", "protocol": "^51Cr-labeled Jurkat cells ([…]) were incubated on surfaces coated with varying concentrations of peptide-rsa conjugates starting at 50 ug/ml (w/v) fragment or peptide (based on peptide not peptide-conjugate weight). […] (No adhesion=no measurable adhesion above negative controls.)\nas §4"}, "integrin receptor α4β1": {"biological_target": "T1, integrin receptor α4β1 (human, UniProt P13612 34-1032; P05556 21-798)", "T1 construct": "whole, on cells; also called α4β1 extracellular matrix receptor; VLA 4", "T1 sequence (P13612 34-1032, form in doubt, chain 1 of 2)": "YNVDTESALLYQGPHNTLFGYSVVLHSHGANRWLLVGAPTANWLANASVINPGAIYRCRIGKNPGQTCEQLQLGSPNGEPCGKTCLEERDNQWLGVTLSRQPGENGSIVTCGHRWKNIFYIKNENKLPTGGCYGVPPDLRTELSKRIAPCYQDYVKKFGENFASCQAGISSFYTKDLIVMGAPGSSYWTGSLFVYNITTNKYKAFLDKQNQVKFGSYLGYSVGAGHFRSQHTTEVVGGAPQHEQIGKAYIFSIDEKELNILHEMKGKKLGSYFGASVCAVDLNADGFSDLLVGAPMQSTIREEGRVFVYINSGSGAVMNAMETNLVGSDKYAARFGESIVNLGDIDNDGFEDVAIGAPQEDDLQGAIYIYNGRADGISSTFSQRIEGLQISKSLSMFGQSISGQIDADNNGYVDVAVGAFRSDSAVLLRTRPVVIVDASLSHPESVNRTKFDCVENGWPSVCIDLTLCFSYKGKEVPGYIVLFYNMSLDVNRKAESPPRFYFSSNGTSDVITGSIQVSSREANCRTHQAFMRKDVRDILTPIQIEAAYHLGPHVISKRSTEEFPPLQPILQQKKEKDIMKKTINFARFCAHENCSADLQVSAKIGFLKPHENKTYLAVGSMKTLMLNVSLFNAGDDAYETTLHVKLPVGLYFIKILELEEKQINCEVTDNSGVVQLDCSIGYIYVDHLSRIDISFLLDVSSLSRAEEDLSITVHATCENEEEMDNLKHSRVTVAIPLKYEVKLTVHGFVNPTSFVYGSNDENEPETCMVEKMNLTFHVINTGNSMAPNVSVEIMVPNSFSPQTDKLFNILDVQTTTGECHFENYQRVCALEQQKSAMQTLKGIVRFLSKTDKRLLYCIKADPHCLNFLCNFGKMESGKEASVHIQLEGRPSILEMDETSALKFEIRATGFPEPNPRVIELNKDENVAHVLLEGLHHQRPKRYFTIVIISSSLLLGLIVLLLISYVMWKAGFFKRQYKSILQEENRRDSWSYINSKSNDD", "T1 sequence (P05556 21-798, form in doubt, chain 2 of 2)": "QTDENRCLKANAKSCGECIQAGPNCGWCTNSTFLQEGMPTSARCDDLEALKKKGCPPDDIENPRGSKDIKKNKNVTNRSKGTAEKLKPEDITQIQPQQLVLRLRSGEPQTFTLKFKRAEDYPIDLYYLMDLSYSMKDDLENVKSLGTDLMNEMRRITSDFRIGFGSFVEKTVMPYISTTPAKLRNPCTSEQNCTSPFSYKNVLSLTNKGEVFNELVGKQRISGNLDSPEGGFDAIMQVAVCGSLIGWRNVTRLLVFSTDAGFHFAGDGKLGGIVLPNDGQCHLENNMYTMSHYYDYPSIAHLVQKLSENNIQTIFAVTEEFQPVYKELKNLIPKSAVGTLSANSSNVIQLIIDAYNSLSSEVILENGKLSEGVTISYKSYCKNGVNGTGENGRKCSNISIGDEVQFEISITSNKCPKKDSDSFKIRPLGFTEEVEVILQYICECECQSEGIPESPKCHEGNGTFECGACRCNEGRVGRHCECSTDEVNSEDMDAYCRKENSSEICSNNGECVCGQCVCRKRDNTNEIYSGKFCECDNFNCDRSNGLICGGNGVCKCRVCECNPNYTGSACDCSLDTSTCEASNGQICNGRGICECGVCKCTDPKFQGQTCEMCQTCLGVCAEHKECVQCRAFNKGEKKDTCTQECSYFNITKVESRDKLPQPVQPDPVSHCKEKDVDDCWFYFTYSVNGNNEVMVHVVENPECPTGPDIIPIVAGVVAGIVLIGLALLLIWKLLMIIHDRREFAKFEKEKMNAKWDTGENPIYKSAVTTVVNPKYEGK", "test": "T lymphocyte adhesion to coated fragments"}}, "note": "Ends that are not written are not given here.", "data": [{"molecule": "Arg-Gly-Asp-Ser (RGDS) [reference compound]", "values": [{"measurement": "Inhibition of adhesion to plasma fibronectin", "setting": "[1]; Molt 4 or Jurkat cells", "result": "50–70%"}, {"measurement": "Adhesion (cpm) +IL-1β", "setting": "[2]; IL-1β activated HUVE, no peptide 12936", "result": 28104, "unit": "cpm"}, {"measurement": "Adhesion (cpm) Basal", "setting": "[2]; basal HUVE, no peptide 2724", "result": 16920, "unit": "cpm"}, {"measurement": "Inhibition of Jurkat cell adhesion to intact fibronectin", "setting": "Jurkat; 1 mg/ml", "result": 50, "unit": "%"}, {"measurement": "Inhibition of Jurkat cell adhesion to the 80 kDa fragment", "setting": "Jurkat; 1 mg/ml", "result": 100, "unit": "%"}, {"measurement": "Effect on Jurkat cell adhesion to the 38 kDa fragment", "setting": "Jurkat; up to 1 mg/ml", "result": "unaffected"}, {"measurement": "Inhibition of adhesion to plasma fibronectin", "setting": "fibroblasts", "result": "80–90%"}, {"measurement": "Adhesion (cpm) +IL-1β", "setting": "[3]; IL-1β activated HUVE, no peptide 314848", "result": 357616, "unit": "cpm"}, {"measurement": "Adhesion (cpm) Basal", "setting": "[3]; basal HUVE, no peptide 161092", "result": 298688, "unit": "cpm"}, {"measurement": "Adhesion (cpm) +IL-1β", "setting": "[4]; IL-1β activated HUVE, no peptide 71408", "result": 102076, "unit": "cpm"}, {"measurement": "Adhesion (cpm) Basal", "setting": "[4]; basal HUVE, no peptide 44860", "result": 70652, "unit": "cpm"}, {"measurement": "Inhibition of adhesion to plasma fibronectin", "setting": "K562-1 cells", "result": 100, "unit": "%"}]}, {"molecule": "LDVPST-RSA: LDVPST conjugated to rabbit serum albumin (also: conjugated to rabbit serum albumin, site not given here)", "values": [{"measurement": "Cell adhesion to conjugate-coated surfaces", "setting": "A375 melanoma cells", "result": "adhered"}, {"measurement": "Cell adhesion to conjugate-coated surfaces", "setting": "Jurkat cells", "result": "only slightly"}]}, {"molecule": "B1", "values": [{"measurement": "efficiency in mediating T lymphocyte adhesion relative to the 58 kDa fragment (molar basis)", "setting": "integrin receptor α4β1", "result": 3, "unit": "times"}, {"measurement": "Efficiency in mediating T lymphocyte adhesion, on a molar basis", "setting": "[1]; compared with the 58 kDa fragment", "result": "three times more efficient than the 58 kDa fragment"}]}]}
